# Assay results from patent US11390604B2 (Hoffmann-La Roche Inc., priority 2019, dated 2022).
# Structures can show the parent of a compound that is named as a salt.
# Test system: Acinetobacter baumannii ATCC 17961
# Test: Antimicrobial susceptibility testing: 90% growth inhibitory concentration (IC90) determination
# Type: cell-based
# Conditions: ATCC17961, Acinetobacter baumannii ATCC 17961, Iso-Sensitest broth, read-out: ATCC 17961 IC90
# Outline: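 Growth was followed kinetically by OD600 at 20-min intervals for 16 h at 35±2 °C, with ~5×10^5 CFU/ml in Iso-Sensitest broth. Compounds were tested as twofold dilutions (e.g. 50–0.097 μM final). The concentration giving 90% inhibition of log-phase growth was reported.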
row,SMILES,IC90 [nM]
1,"CCn1cc(-c2cnc(C(=O)Nc3ccc(C(=O)N4CCN(C(=O)N[C@H]5C[C@@H](N)C5)CC4)c(Cl)c3)n2C)c(C(F)(F)F)n1 [Example 296, N-(3-aminocyclobutyl)-4-[2-chloro-4-[[5-[1-ethyl-3-(trifluoromethyl)pyrazol-4-yl]-1-methylimidazole-2-carbonyl]amino]benzoyl]pipera-zine-1-carboxamide;formic acid]",364
2,"CN1CCN(C(=O)N2CCN(C(=O)c3ccc(NC(=O)c4ncc(-c5cn(C6CC6)nc5C(F)(F)F)n4C)cc3Cl)CC2)CC1 [Example 297, N-(3-chloro-4-(4-(4-methylpiperazine-1-carbonyl)piperazine-1-carbonyl)phenyl)-5-(1-cyclopropyl-3-(trifluoromethyl)-1H-pyrazol-4-yl)-1-methyl-1H-imidazole-2-carboxamide]",365
3,"Cn1c(-c2cn(CCF)nc2C(F)(F)F)cnc1C(=O)Nc1ccc(C(=O)N2CCN(C(=O)[C@H]3C[C@H](N)C3)CC2)c(Cl)c1 [Example 298, N-[4-[4-(3-aminocyclobutanecarbonyl)piper-azine-1-carbonyl]-3-chlorophenyl]-5-[1-(2-fluoroethyl)-3-(trifluoromethyl)pyrazol-4-yl]-1-methylimidazole-2-carboxamide;trihydrochloride]",365
4,"Cn1c(-c2cn(C3CC3)nc2C(F)(F)F)cnc1C(=O)Nc1ccc(C(=O)N2CCN(C(=O)[C@H]3CCNC3)CC2)c(Cl)c1 [Example 299, (S)-N-(3-chloro-4-(4-(pyrrolidine-3-carbonyl)piperazine-1-carbonyl)phenyl)-5-(1-cyclopropyl-3-(trifluoromethyl)-1H-pyrazol-4-yl)-1-methyl-1H-imidazole-2-carboxamide hydrochloride]",366
5,"Cn1c(-c2cn(CC(F)F)nc2C(F)(F)F)cnc1C(=O)Nc1ccc(C(=O)N2CCN(C(=O)C3CCNCC3)CC2)c(F)c1 [Example 301, 5-(1-(2,2-difluoroethyl)-3-(trifluoromethyl)-1H-pyrazol-4-yl)-N-(3-fluoro-4-(4-(piperidine-4-carbonyl)piperazine-1-carbonyl)phenyl)-1-methyl-1H-imidazole-2-carboxamide]",369
6,"Cn1c(-c2cn(C3CC3)nc2C(F)(F)F)cnc1C(=O)Nc1ccc(C(=O)N2CCN(C(=O)CCCN)CC2)c(Cl)c1 [Example 302, N-(4-(4-(4-aminobutanoyl)piperazine-1-carbonyl)-3-chlorophenyl)-5-(1-cyclopropyl-3-(trifluoromethyl)-1H-pyrazol-4-yl)-1-methyl-1H-imidazole-2-carboxamide hydrochloride]",370
7,"Cn1c(-c2cn(CC(F)F)nc2C(F)(F)F)cnc1C(=O)Nc1ccc(C(=O)N2CCN(C(=O)NCC3(O)CNC3)CC2)c(Cl)c1 [Example 303, 4-[2-chloro-4-[[5-[1-(2,2-difluoroethyl)-3-(trifluoromethyl)pyrazol-4-yl]-1-methyl-imidazole-2-carbonyl]amino]benzoyl]-N-[(3-hydroxyazetidin-3-yl)methyl]piperazine-1-carboxamide; formic acid]",371
8,"Cn1c(-c2cn(CC3CCCC3)nc2C(F)(F)F)cnc1C(=O)Nc1ccc(C(=O)N2CCN(C(=O)C3CCNCC3)CC2)c(Cl)c1 [Example 304, N-(3-chloro-4-(4-(piperidine-4-carbonyl)piperazine-1-carbonyl)phenyl)-5-(1-(cyclopentylmethyl)-3-(trifluoromethyl)-1H-pyrazol-4-yl)-1-methyl-1H-imidazole-2-carboxamide hydrochloride]",371
9,"Cn1c(-c2cn(CC(F)(F)F)nc2C(F)(F)F)cnc1C(=O)Nc1ccc(C(=O)N2CCN(C(=O)N[C@H]3C[C@@H](N)C3)CC2)c(Cl)c1 [Example 305, rac-N-((1s,3s)-3-aminocyclobutyl)-4-(2-chloro-4-(1-methyl-5-(1-(2,2,2-trifluoroethyl)-3-(trifluoromethyl)-1H-pyrazol-4-yl)-1H-imidazole-2-carboxamido)benzoyl)piperazine-1-carboxamide hydrochloride]",373
10,"Cn1c(-c2cn(C3CC3)nc2C(F)(F)F)cnc1C(=O)Nc1ccc(C(=O)N[C@H]2[C@@H]3CN(C(=O)C4CCNCC4)C[C@@H]32)c(Cl)c1 [Example 306, N-(3-chloro-4-((exo-3-(piperidine-4-carbonyl)-3-azabicyclo[3.1.0]hexan-6-yl)carbamoyl)phenyl)-5-(1-cyclopropyl-3-(trifluoromethyl)-1H-pyrazol-4-yl)-1-methyl-1H-imidazole-2-carboxamide]",374
11,"Cn1c(-c2cn(CC=C(F)F)nc2C(F)(F)F)cnc1C(=O)Nc1ccc(C(=O)N[C@H]2C[C@@H](N)C2)c(Cl)c1 [Example 307, rac-N-(4-(((1s,3s)-3-aminocyclobutyl)carbamoyl)-3-chlorophenyl)-5-(1-(3,3-difluoroallyl)-3-(trifluoromethyl)-1H-pyrazol-4-yl)-1-methyl-1H-imidazole-2-carboxamide 2,2,2-trifluoroacetate]",375
12,"CSc1ccc(NC(=O)c2ncc(-c3cn(CC(F)F)nc3C(F)(F)F)n2C)cc1C [Example 308, 5-[1-(2,2-difluoroethyl)-3-(trifluoromethyl)pyrazol-4-yl]-1-methyl-N-(3-methyl-4-methylsulfanyl-phenyl)imidazole-2-carboxamide]",377
13,"Cn1c(-c2cn(C3CC3)nc2C(F)(F)F)cnc1C(=O)Nc1ccc(C(=O)N2CCN(C(=O)CC3CCNCC3)CC2)c(Cl)c1 [Example 309, N-(3-chloro-4-(4-(2-(piperidin-4-yl)acetyl)piperazine-1-carbonyl)phenyl)-5-(1-cyclopropyl-3-(trifluoromethyl)-1H-pyrazol-4-yl)-1-methyl-1H-imidazole-2-carboxamide hydrochloride]",378
14,"Cn1c(-c2cn(C3CC3)nc2C(F)(F)F)cnc1C(=O)Nc1ccc(C(=O)N2CCN(C(=O)C3CNCCC3O)CC2)c(Cl)c1 (centres unmarked) [Example 311, N-[3-chloro-4-[4-(4-hydroxypiperidine-3-carbonyl)piperazine-1-carbonyl]phenyl]-5-[1-cyclopropyl-3-(trifluoromethyl)pyrazol-4-yl]-1-methylimidazole-2-carboxamide;hydrochloride]",382
15,"C/C=C/Cn1cc(-c2cnc(C(=O)Nc3ccc(C(=O)N4CCN(C(=O)C5CCNCC5)CC4)c(Cl)c3)n2C)c(C(F)(F)F)n1 [Example 312, (E)-5-(1-(but-2-en-1-yl)-3-(trifluoromethyl)-1H-pyrazol-4-yl)-N-(3-chloro-4-(4-(piperidine-4-carbonyl)piperazine-1-carbonyl)phenyl)-1-methyl-1H-imidazole-2-carboxamide hydrochloride]",385
16,"Cn1c(-c2cn(C3CC3)nc2C(F)(F)F)cnc1C(=O)Nc1ccc(C(=O)N2CCN(C(=O)[C@H]3C[C@H](O)CN3)CC2)c(Cl)c1 [Example 313, N-(3-chloro-4-(4-((2R,4S)-4-hydroxypyrrolidine-2-carbonyl)piperazine-1-carbonyl)phenyl)-5-(1-cyclopropyl-3-(trifluoromethyl)-1H-pyrazol-4-yl)-1-methyl-1H-imidazole-2-carboxamide hydrochloride]",386
17,"Cn1c(-c2cn(C3CC3(F)F)nc2C(F)(F)F)cnc1C(=O)Nc1ccc(C(=O)NCCCCNC(=O)OC(C)(C)C)c(Cl)c1 (centres unmarked) [Example 314, tert-butyl (4-(2-chloro-4-(5-(1-(2,2-difluorocyclopropyl)-3-(trifluoromethyl)-1H-pyrazol-4-yl)-1-methyl-1H-imidazole-2-carboxamido)benzamido)butyl) carbamate]",388
18,"Cn1c(-c2cn(CC#N)nc2C(F)(F)F)cnc1C(=O)Nc1ccc(C(=O)N[C@H]2C[C@H](NC(=O)[C@@H]3CCNC3)C2)c(Cl)c1 [Example 315, N-[3-chloro-4-[[3-[[(3R)-pyrrolidine-3-carbonyl]amino]cyclobutyl]car-bamoyl]phenyl]-5-[1-(cyanomethyl)-3-(trifluoromethyl)pyrazol-4-yl]-1-methylimidazole-2-carboxamide;formic acid]",390
19,"Cn1c(-c2cn(CC#N)nc2C(F)(F)F)cnc1C(=O)Nc1ccc(C(=O)N[C@H]2C[C@@H](NC(=O)N3CC[C@@H](N)C3)C2)c(Cl)c1 [Example 316, N-[4-[[3-[[(3R)-3-aminopyrrolidine-1-carbonyl]amino]cyclobutyl]car-bamoyl]-3-chloro-phenyl]-5-[1-(cyanomethyl)-3-(trifluoromethyl)pyrazol-4-yl]-1-methyl-imidazole-2-carboxamide; formic acid]",392
20,"Cn1c(-c2cn(C3CC3)nc2C(F)(F)F)cnc1C(=O)Nc1ccc(C(=O)NC2CC3(CC(N)C3)C2)c(Cl)c1 (centres unmarked) [Example 317, N-(4-((6-aminospiro[3.3]heptan-2-yl)carbamoyl)-3-chlorophenyl)-5-(1-cyclopropyl-3-(trifluoromethyl)-1H-pyrazol-4-yl)-1-methyl-1H-imidazole-2-carboxamide hydrochloride]",393
21,"Cn1c(-c2cn(C3CC3)nc2C(F)(F)F)cnc1C(=O)Nc1ccc(C(=O)N2CCN(C(=O)C3(O)CCNC3)CC2)c(Cl)c1 (centres unmarked) [Example 318, N-[3-chloro-4-[4-(3-hydroxypyrrolidine-3-carbonyl)piperazine-1-carbonyl]phenyl]-5-[1-cyclopropyl-3-(trifluoromethyl)pyrazol-4-yl]-1-methylimidazole-2-carboxamide;hydrochloride]",396
22,"Cn1c(-c2cn(C3CC3(F)F)nc2C(F)(F)F)cnc1C(=O)Nc1ccc(C(=O)NC2CC3CNCC32)c(Cl)c1 (centres unmarked) [Example 319, N-(4-((3-azabicyclo[3.2.0]heptan-6-yl)carbamoyl)-3-chlorophenyl)-5-(1-(2,2-difluorocyclopropyl)-3-(trifluoromethyl)-1H-pyrazol-4-yl)-1-methyl-1H-imidazole-2-carboxamide formate]",398
23,"Cn1c(-c2cn(C3CC3)nc2C(F)(F)F)cnc1C(=O)Nc1ccc(C(=O)N2CCN(C(=O)NCC3(O)CCNCC3)CC2)c(Cl)c1 [Example 320, 4-(2-chloro-4-(5-(1-cyclopropyl-3-(trifluoromethyl)-1H-pyrazol-4-yl)-1-methyl-1H-imidazole-2-carboxamido)benzoyl)-N-((4-hydroxypiperidin-4-yl)methyl)piperazine-1-carboxamide formate]",403
